# Values joined by “and” are separate entries in the source; they are usually repeats but may differ in a detail not shown here. Identical values can stand only once. Like-named read-outs stand apart in the source and are kept apart here.
# Legend:
# [1] = Bidirectional permeability measurement in Caco-2 cells; type: in vitro ADME; settings: human
# Method in brief: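 Caco-2 monolayers grown 14–21 days, preincubated 24 h with medium containing 1 µM compound; bidirectional transport sampled up to 2 h, quantified by LC-MS/MS, ± 5 µM zosuquidar (P-gp inhibitor). Papp,AB and Papp,BA from receiver amount, donor C0, area and time; efflux ratio = Papp,BA/Papp,AB (duplicate means). TEER checked per plate.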
# SMARCA2 = SMARCA2 (Homo sapiens, UniProt P51531); assay: SMARCA2 capillary electrophoresis protein assay in other cell lines (A549, NCI-H1568, HCT116, LU99, HCC-364, HCT-15, HCC4006, SK-N-AS); type: cell-based; parameters: endogenous in cells; host or cells: RKO, NCI-H1568, A549, HCT116, LU99, HCC-364, HCT-15, HCC4006, SK-N-AS
# Procedure: 130,000–200,000 cells were seeded in 24-well plates and incubated until settled down or overnight. Compounds were dissolved in DMSO and added to cells in indicated concentrations using a digital dispenser following an optional media change. Cells were incubated for 4 or 18 h as indicated. For SMARCA2/4 half-life determination, 150,000 or 200,000 cells were seeded in 24-well plates. The next day, 50 µg/ml cycloheximide (Sigma) was added and cells were incubated for 1–24 h. For SMARCA2/4 re-synthesis measurements, 200,000 cells were seeded in 24-well plates. The next day, 100 nM compound 6 was added for 4 h to degrade SMARCA2/4, and a sample was taken as baseline for normalisation. To allow re-synthesis, a VHL binder (compound 32, 25 or 50 µM) was then added for 3 or 24 h. Medium was removed, cells were washed with PBS and lysed with 80 µl Lysis Buffer (MSD Tris Lysis Buffer (#R60TX-2) + Halt Inhibitor Cocktail (100x) + Benzonase 0.5 µL/ml). Samples were frozen at −80 °C and thawed at room temperature before use. Samples were transferred to a V-bottom plate and insoluble debris was pelleted by centrifugation for 5 min at maximum speed. The supernatant was transferred to a fresh plate. Master Mix and Ladder were prepared according to manufacturer’s instructions for 12–230 kDa Wes Separation Module, 8 × 25 capillary cartridges, Protein Simple #SM-W004 with Anti-Rabbit Detection Module for Wes, Peggy Sue or Sally Sue, Protein Simple #DM-001. 4.8 µl lysate were mixed with 1.2 µl Master Mix to achieve a protein concentration of ~0.5 µg/µl. Antibodies were diluted in Antibody Diluent II (SMARCA2 Sigma #HPA029981 RRID:AB_10602406 1:25–100, SMARCA4 Cell Signalling #49360 clone D1Q7F RRID:AB_2728743 1:15–120 or Abcam #ab110641 clone EPNCIR111A RRID:AB_10861578 1:60, GAPDH Abcam #ab9485 RRID:AB_307275 1:250). Wes plates were prepared and run according to manufacturer’s instructions. Proteins were quantified with accompanying Compass Software. SMARCA2/4 protein levels were normalised to GAPDH. […] Where applicable, curves were fitted using a 4-parametric logistic model.
# Plasma protein binding = type: in vitro ADME; settings: for fraction unbound at 5 h, 3 µmol/L: bovine, read-out: PPB fu 10% Calf; for fraction unbound at 5 h, 3 µmol/L / PPB fu 10% Calf: 10% calf
# Procedure: Binding of compound to plasma proteins was determined by equilibrium dialysis of 3 µmol/L compound in plasma (or plasma dilutions in PBS) against PBS through an 8 kDa molecular-weight cut-off cellulose membrane (RED device, Thermo Fisher) at 37 °C for 5 h. After incubation, aliquots from donor and acceptor compartments were precipitated and the concentrations in the supernatants were determined by quantitative LC-MS/MS. Calibration and quality control samples were prepared using blank plasma and internal standard. The fraction unbound was calculated as ratio of the compound concentration in the acceptor compartment to the concentration in the donor compartment.
# [2] = Caco-2, pH 7.4, Caco-2, b to a, read-out: Caco-2 Pba
# [3] = Caco-2, pH 7.4, Caco-2, read-out: Caco-2 Efflux ratio
# [4] = Caco-2, pH 7.4, Caco-2, read-out: Caco-2 Pab
# [5] = NCI-H1568 (4 h), mean ± SD, read-out: SMARCA2 DC50
# [6] = NCI-H1568, 4h, individual replicates, read-out: NCI-H1568 (4h) SMARCA2 DC50
# SMARCA2, sequence (P51531 whole entry): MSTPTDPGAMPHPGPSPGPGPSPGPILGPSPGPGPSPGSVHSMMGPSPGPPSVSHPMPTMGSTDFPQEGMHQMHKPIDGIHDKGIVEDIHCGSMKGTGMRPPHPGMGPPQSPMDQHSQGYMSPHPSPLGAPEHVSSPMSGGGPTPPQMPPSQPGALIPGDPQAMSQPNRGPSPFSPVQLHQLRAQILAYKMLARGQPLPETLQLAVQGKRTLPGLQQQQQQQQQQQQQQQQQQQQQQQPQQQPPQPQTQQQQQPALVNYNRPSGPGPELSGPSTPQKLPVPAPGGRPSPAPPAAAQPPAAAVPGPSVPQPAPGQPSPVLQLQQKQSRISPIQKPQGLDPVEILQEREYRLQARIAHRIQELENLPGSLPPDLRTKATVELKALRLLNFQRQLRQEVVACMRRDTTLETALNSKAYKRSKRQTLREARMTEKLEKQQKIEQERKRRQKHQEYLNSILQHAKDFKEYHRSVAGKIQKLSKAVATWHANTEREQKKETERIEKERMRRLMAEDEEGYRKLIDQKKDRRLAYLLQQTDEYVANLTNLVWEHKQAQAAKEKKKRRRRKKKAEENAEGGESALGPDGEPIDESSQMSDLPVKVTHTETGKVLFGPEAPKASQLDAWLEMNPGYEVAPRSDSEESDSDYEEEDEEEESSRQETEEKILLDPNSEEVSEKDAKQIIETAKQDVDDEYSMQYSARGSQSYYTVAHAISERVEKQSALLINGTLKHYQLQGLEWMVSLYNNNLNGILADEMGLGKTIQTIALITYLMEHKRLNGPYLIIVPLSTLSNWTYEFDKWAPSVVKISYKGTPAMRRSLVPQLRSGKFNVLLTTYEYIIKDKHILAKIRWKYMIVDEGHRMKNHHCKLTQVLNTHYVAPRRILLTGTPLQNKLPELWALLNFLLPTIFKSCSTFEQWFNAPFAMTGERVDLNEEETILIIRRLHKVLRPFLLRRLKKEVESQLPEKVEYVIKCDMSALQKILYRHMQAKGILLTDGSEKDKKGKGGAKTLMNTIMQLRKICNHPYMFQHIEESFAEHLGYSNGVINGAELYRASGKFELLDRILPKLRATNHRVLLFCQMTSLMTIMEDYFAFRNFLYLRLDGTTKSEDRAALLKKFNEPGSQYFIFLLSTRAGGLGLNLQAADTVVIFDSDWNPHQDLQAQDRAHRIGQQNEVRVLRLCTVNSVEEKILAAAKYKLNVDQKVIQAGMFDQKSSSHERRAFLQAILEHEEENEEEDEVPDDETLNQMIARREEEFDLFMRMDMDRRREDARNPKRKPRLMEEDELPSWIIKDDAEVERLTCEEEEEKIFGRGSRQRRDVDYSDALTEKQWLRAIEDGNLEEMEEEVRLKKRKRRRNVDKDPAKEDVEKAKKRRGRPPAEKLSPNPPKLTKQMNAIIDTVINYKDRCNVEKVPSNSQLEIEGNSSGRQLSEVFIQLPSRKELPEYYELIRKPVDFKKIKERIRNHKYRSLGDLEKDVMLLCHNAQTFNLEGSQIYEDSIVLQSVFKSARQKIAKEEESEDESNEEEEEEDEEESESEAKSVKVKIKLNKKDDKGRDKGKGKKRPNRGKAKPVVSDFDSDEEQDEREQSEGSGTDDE
smiles,measurement,setting,value
O=c1nc2n(C3CCCC3)c3ccccc3n2c2cccc(Br)c12 [compound 1],Papp B→A at 1 µM,[1]; [2],23.9 ×10⁻⁶ cm/s
same,"efflux ratio at 2 h, 1 µM",[1]; [3],0.774
same,Papp A→B at 1 µM,[1]; [4],31 ×10⁻⁶ cm/s
Nc1cccc2c1c(=O)nc1n(C3CCCC3)c3ccccc3n21 [compound 2],Papp B→A at 1 µM,[1]; [2],17 ×10⁻⁶ cm/s
same,"efflux ratio at 2 h, 1 µM",[1]; [3],0.459
same,Papp A→B at 1 µM,[1]; [4],37 ×10⁻⁶ cm/s
CN1CCC(c2ccc3c(c2)n(C2CCCC2)c2nc(=O)c4c(Br)cccc4n32)CC1 [compound 3],DC50,SMARCA2; [5],> 2500 nM
same,DC50,SMARCA2; [6],> 2500 nM
same,Papp B→A at 1 µM,[1]; [2],21.7 ×10⁻⁶ cm/s
same,"efflux ratio at 2 h, 1 µM",[1]; [3],0.768
same,Papp A→B at 1 µM,[1]; [4],28 ×10⁻⁶ cm/s
Cc1ncsc1-c1ccc([C@H](COC(C)CN2CCC(c3ccc4c(c3)n(C3CCCC3)c3nc(=O)c5c(Br)cccc5n43)CC2)NC(=O)[C@@H]2C[C@@H](O)CN2C(=O)[C@@H](NC(=O)C2(N(C)C)CC2)C(C)(C)C)cc1 (some centres unmarked) [compound 10],"fraction unbound at 5 h, 3 µmol/L","Plasma protein binding; 10% calf plasma dilution in PBS, fraction unbound",0.05
same,"fraction unbound at 5 h, 3 µmol/L",Plasma protein binding; 10% plasma (plasma dilution in PBS),0.0548
same,Papp B→A at 1 µM,[1]; [2],26 ×10⁻⁶ cm/s
same,"efflux ratio at 2 h, 1 µM",[1]; [3],4.64
same,Papp B→A at 1 µM,"[1]; Caco-2, pH 7.4, Modified Caco-2, b to a, read-out: Modified Caco-2 Pba",69 ×10⁻⁶ cm/s
same,"efflux ratio at 2 h, 1 µM","[1]; Caco-2, pH 7.4, Modified Caco-2, read-out: Modified Caco-2 Efflux ratio",36.3
same,Papp A→B at 1 µM,"[1]; Caco-2, pH 7.4, Modified Caco-2, read-out: Modified Caco-2 Pab",< 1 ×10⁻⁶ cm/s
Cc1ncsc1-c1ccc([C@H](CC[C@H](C)CCN2CCC(c3ccc4c(c3)n(C3CCCC3)c3nc(=O)c5c(Br)cccc5n43)CC2)NC(=O)[C@@H]2C[C@H](O)CN2C(=O)[C@@H](NC(=O)C2(F)CC2)C(C)(C)C)cc1 [compound 12],Papp A→B at 1 µM,"[1]; Caco-2, pH 7.4, Caco-2, a to b, read-out: Caco-2 Pab",3.4 ×10⁻⁶ cm/s
same,Papp B→A at 1 µM,[1]; [2],8.5 ×10⁻⁶ cm/s
Cc1ncsc1-c1ccc(CNC(=O)[C@@H]2C[C@@H](O)CN2C(=O)[C@@H](NC(=O)C2(F)CC2)C(C)(C)C)c(OCCN2CCC(c3ccc4c(c3)n(C3CCCC3)c3nc(=O)c5c(Br)cccc5n43)CC2)c1 [compound 20],DC50,SMARCA2; [5],> 2500 nM
same,DC50,SMARCA2; [6],> 2500 nM
Cc1ncsc1-c1ccc([C@H](CCCCN2CCC(c3ccc4c(c3)n(C3CCCC3)c3nc(=O)c5c(Br)cccc5n43)CC2)NC(=O)[C@@H]2C[C@@H](O)CN2C(=O)[C@@H](NC(=O)C2(F)CC2)C(C)(C)C)cc1 [compound 25],PPB fu 10% Calf,Plasma protein binding,0.731%
same,PPB fu 10% Calf,Plasma protein binding; fraction unbound,0.7%
Cc1ncsc1-c1ccc([C@H](COCCN2CCC(c3ccc4c(c3)n(C3CCCC3)c3nc(=O)c5c(Br)cccc5n43)CC2)NC(=O)[C@@H]2C[C@@H](O)CN2C(=O)[C@@H](NC(=O)C2(N(C)C)CC2)C(C)(C)C)cc1 [compound 26],Papp B→A at 1 µM,[1]; [2],15.4 ×10⁻⁶ cm/s
same,Papp A→B at 1 µM,[1]; [4],< 3 ×10⁻⁶ cm/s
Cc1ncsc1-c1ccc([C@H](COC(C)(C)CN2CCC(c3ccc4c(c3)n(C3CCCC3)c3nc(=O)c5c(Br)cccc5n43)CC2)NC(=O)[C@@H]2C[C@@H](O)CN2C(=O)[C@@H](NC(=O)C2(F)CC2)C(C)(C)C)cc1 [compound 28],SMARCA2 Dmax,"SMARCA2; NCI-H1568 (4 h), mean ± SD",94 ± 6%
same,DC50,SMARCA2; [5],18 ± 13 nM
same,DC50,SMARCA2; [6],6.62 nM and 28.2 nM and 30.1 nM
same,PPB fu 10% Calf,Plasma protein binding,1.857% and 2.316%
same,PPB fu 10% Calf,Plasma protein binding; fraction unbound,2 ± 0.3%
same,PPB fu 10% Human,Plasma protein binding,<0.224%
same,PPB fu 10% Mouse,Plasma protein binding,<0.219%
same,PPB fu 10% Rat,Plasma protein binding,<0.231%
same,PPB fu Human,Plasma protein binding; fraction unbound,<0.2%
same,PPB fu Mouse,Plasma protein binding; fraction unbound,<0.2%
same,PPB fu Rat,Plasma protein binding; fraction unbound,<0.2%
Cc1ncsc1-c1ccc([C@H](CC[C@@H](C)CCN2CCC(c3ccc4c(c3)n(C3CCCC3)c3nc(=O)c5c(Br)cccc5n43)CC2)NC(=O)[C@@H]2C[C@@H](O)CN2C(=O)[C@@H](NC(=O)C2(F)CC2)C(C)(C)C)cc1 [compound 29],PPB fu 10% Calf,Plasma protein binding,<0.144%
same,PPB fu 10% Calf,Plasma protein binding; fraction unbound,<0.14%
same,PPB fu 10% Human,Plasma protein binding,<0.052%
same,PPB fu 10% Mouse,Plasma protein binding,<0.335%
same,PPB fu 10% Rat,Plasma protein binding,<0.272%
same,PPB fu Human,Plasma protein binding; fraction unbound,<0.05%
same,PPB fu Mouse,Plasma protein binding; fraction unbound,<0.34%
same,PPB fu Rat,Plasma protein binding; fraction unbound,<0.27%
Cc1ncsc1-c1ccc([C@H](CCC(C)(C)CCN2CCC(c3ccc4c(c3)n(C3CCCC3)c3nc(=O)c5c(Br)cccc5n43)CC2)NC(=O)[C@@H]2C[C@@H](O)CN2C(=O)[C@@H](NC(=O)C2(F)CC2)C(C)(C)C)cc1 [compound 30],PPB fu 10% Calf,Plasma protein binding,<0.071%
same,PPB fu 10% Calf,Plasma protein binding; fraction unbound,<0.07%
